Assay results reported in patent publication US10729130B2, “Nematicidal compositions and methods of using them” (Eden Research plc, priority 2004, dated 2020).

Key:
Assay type in all cases: physicochemical
[1] = Screen of commercially available particles for terpene absorption (free terpene score); design: key: +: “free terpene” refers to the visible presence of terpene in the centrifuged reaction mixture; −: The absence of free terpene indicates complete absorption of the terpene by the particles; details: overnight
Description: The following protocol was performed to analyse the loading properties of different types of particles. The particles studied were Baker's Yeast Particles (Sigma Chemical Corp., St. Louis, Mo.), Nutrex™ Walls (Sensient Technologies, Milwaukee, Wis.), SAF-Mannan™ (SAF Agri, Minneapolis, Minn.), Nutricept Walls™ (Nutricepts Inc., Burnsville, Minn.), Levacan™ (Savory Systems International, Inc., Branchburg, N.J.) and WGP™ (Alpha-beta Technology, Inc. Worcester, Mass.).
The YP suspensions were prepared as follows: • Baker's yeast particle suspension (YP) was prepared by mixing 250 mg YP/ml 1% Tween 80. • Nutrex suspension was prepared by mixing 163 mg Nutrex YGP/ml 1% Tween 80. • SAF Mannan suspension was prepared by mixing 234 mg Biospringer YGP/ml 1% Tween 80. • Nutricepts suspension was prepared by mixing 99 mg Nutricepts YGP/ml 1% Tween 80. • Levacan suspension was prepared by mixing 217 mg Lev YGP/ml 1% Tween 80. • WGP suspension was prepared by mixing 121 mg WGP YGP/ml 1% Tween 80.
The packed volume of the above particles is identical which means that equal numbers of particles were assayed.
Loading reactions were set up as shown in Table 25 and left to incubate overnight. Samples were centrifuged at 14,000×g for 10 minutes and the appearance of free terpene floating on the aqueous layer and the color of the encapsulated terpenes in the pellet was scored. The highest volume of terpene absorbed by particles as evidenced by the absence of free terpene was recorded as the volume of absorbed terpene emulsion.

[2] = Terpene loading with surfactant, Tween-80:terpene ratio (free terpene score); design: key: Sl = slight; details: 250 mg/ml YP
Description: Samples were centrifuged at 14,000×g for 10 minutes and the appearance of free terpene floating on the aqueous layer was scored. The expression “free terpene” refers to the visible presence of terpene in the centrifuged reaction mixture. The absence of free terpene indicates complete absorption and encapsulation of the terpene by the YP. The highest volume of terpene absorbed by the YP, as evidenced by the absence of free terpene, was recorded as the maximal volume of absorbed terpene emulsion.

[3] = Terpene stability: yellow colored oxidation product (colour of encapsulated terpene pellet); design: key to Colour: W = white; Y = yellow; sl = slight; int = intermediate; key to Color: White, W; Yellow, Y; Very Yellow, VY; details: for Color: Table 26, scored at 24 hours
Description: Loading reactions were set up as shown in Table 25 and left to incubate overnight. Samples were centrifuged at 14,000×g for 10 minutes and the appearance of free terpene floating on the aqueous layer and the color of the encapsulated terpenes in the pellet was scored. The highest volume of terpene absorbed by particles as evidenced by the absence of free terpene was recorded as the volume of absorbed terpene emulsion. The reactions were incubated for 1, 3, 6, 9 and 24 hours at room temperature or 37° C. After incubation samples were centrifuged at 14,000×g for 10 minutes and the appearance of free terpene floating on the aqueous layer was scored. The highest volume of terpene absorbed by the particles as evidenced by the absence of free terpene was recorded as the volume of absorbed terpene emulsion. Colour of the encapsulated pellet was scored at 24 hours. Increasing volumes of terpene emulsion were mixed with 250 mg/ml Baker's YP or 250 mg/ml SAF Mannan™ overnight at room temperature as shown in Tables 27 and 28. Samples were centrifuged at 14,000×g for 10 minutes and the appearance of free terpene floating on the aqueous layer was scored. The highest volume of terpene emulsion absorbed by Baker's YP or SAF Mannan™ as evidenced by the absence of free terpene was recorded as the volume of absorbed terpene emulsion. Colour of encapsulated terpenes in the pellet was recorded.

[4] = Baker's YP loading of different terpenes and terpene mixtures; design: key to Free Terpene: +: “free terpene” refers to the visible presence of terpene in the centrifuged reaction mixture; −: The absence of free terpene indicates complete absorption of the terpene by the particles; details: for Free Terpene: Baker's YP 250 mg/ml 500 μl; for Vol. Loaded μl: approximate maximal terpene loading in Baker's YP
Description: Increasing volumes of terpene emulsion were mixed with 250 mg/ml Baker's YP or 250 mg/ml SAF Mannan™ overnight at room temperature as shown in Tables 27 and 28. Samples were centrifuged at 14,000×g for 10 minutes and the appearance of free terpene floating on the aqueous layer was scored. The highest volume of terpene emulsion absorbed by Baker's YP or SAF Mannan™ as evidenced by the absence of free terpene was recorded as the volume of absorbed terpene emulsion. Colour of encapsulated terpenes in the pellet was recorded.
Percentage loaded represents a ratio of the amount of terpene loaded to the amount of particle present (weight for weight).

[5] = Baker's 250 mg/ml, emulsion 125 μl L-carvone or 100 μl Citral
[6] = Levacan 217 mg/ml, emulsion 125 μl L-carvone or 100 μl Citral
[7] = Nutrex 163 mg/ml, emulsion 125 μl L-carvone or 100 μl Citral
[8] = Nutricepts 99 mg/ml, emulsion 125 μl L-carvone or 100 μl Citral
[9] = SAF Mannan 234 mg/ml, emulsion 125 μl L-carvone or 100 μl Citral
[10] = WGP 121 mg/ml, emulsion 125 μl L-carvone or 100 μl Citral
[11] = no particle, emulsion 125 μl L-carvone or 100 μl Citral in 1% Tween 80
[12] = Table 25, Baker's 250 mg/ml, overnight
[13] = Table 25, Levacan 217 mg/ml, overnight
[14] = Table 25, Nutrex 163 mg/ml, overnight
[15] = Table 25, Nutricepts 99 mg/ml, overnight
[16] = Table 25, SAF Mannan 234 mg/ml, overnight
[17] = Table 25, WGP 121 mg/ml, overnight
[18] = Table 27, Baker's YP, emulsion 15 μl
[19] = Table 27, Baker's YP, emulsion 37.5 μl
[20] = Table 27, Baker's YP, emulsion 112.5 μl
[21] = Table 27, Baker's YP, emulsion 150 μl
[22] = Table 27, Baker's YP, emulsion 225 μl
[23] = Table 27, Baker's YP, emulsion 450 μl
[24] = colour of encapsulated terpene in pellet, SAF Mannan 500 μl, terpene emulsion vol 15
[25] = colour of encapsulated terpene in pellet, SAF Mannan 500 μl, terpene emulsion vol 37.5
[26] = colour of encapsulated terpene in pellet, SAF Mannan 500 μl, terpene emulsion vol 75
[27] = colour of encapsulated terpene in pellet, SAF Mannan 500 μl, terpene emulsion vol 112.5
[28] = colour of encapsulated terpene in pellet, SAF Mannan 500 μl, terpene emulsion vol 150
[29] = colour of encapsulated terpene in pellet, SAF Mannan 500 μl, terpene emulsion vol 225
[30] = colour of encapsulated terpene in pellet, SAF Mannan 500 μl, terpene emulsion vol 450
[31] = emulsion 15 μl, 1% Tween-80 485 μl
[32] = emulsion 37.5 μl, 1% Tween-80 462.5 μl
[33] = emulsion 150 μl, 1% Tween-80 350 μl
[34] = emulsion 225 μl, 1% Tween-80 275 μl

CC(C)=CCCC(C)=CC=O [Citral, citral]
Free Terpene [1, 5]: − | Free Terpene [1, 6]: + | Free Terpene [1, 7]: − | Free Terpene [1, 8]: + | Free Terpene [1, 9]: − | Free Terpene [1, 10]: + | Free Terpene [1, 11]: + | Free Terpene ([2]; Citral emulsion 113 μl, 10% Tween-80 33 μl): Sl | Free Terpene ([2]; Citral emulsion 113 μl, 10% Tween-80 100 μl): Sl | Colour [3, 12]: Y | Colour [3, 13]: int | Colour [3, 14]: Y | Colour [3, 15]: Y | Colour [3, 16]: W | Colour [3, 17]: int | Colour ([3]; Table 25, no particle, emulsion in 1% Tween 80, overnight): Y | Color ([3]; 37 ° C., Bakers 250 mg/ml): VY | Color ([3]; 37 ° C., Nutrex 100 mg/ml): VY | Color ([3]; 37 ° C., SAF 100 mg/ml): W | Color ([3]; Rt, Bakers 250 mg/ml): Y | Color ([3]; Rt, Nutrex 100 mg/ml): Y | Color ([3]; Rt, SAF 100 mg/ml): W | Colour [3, 18]: Y | Colour [3, 19]: Y | Colour ([3]; Table 27, Baker's YP, emulsion 75 μl): Y | Colour [3, 20]: Y | Colour [3, 21]: Y | Colour [3, 22]: Y | Colour [3, 23]: Y | Colour [3, 24]: W | Colour [3, 25]: W | Colour [3, 26]: W | Colour [3, 27]: W | Colour [3, 28]: W | Colour [3, 29]: W | Colour [3, 30]: W | Free Terpene [4, 31]: − | Free Terpene [4, 32]: − | Free Terpene ([4]; emulsion 75 μl, 1% Tween-80 425 μl): − | Free Terpene [4, 33]: + | Free Terpene [4, 34]: + | Free Terpene ([4]; emulsion 450 μl, 1% Tween-80 50 μl): + | Vol. Loaded μl [4]: 75 µL

L-carvone
Free Terpene [1, 5]: − | Free Terpene [1, 6]: + | Free Terpene [1, 7]: − | Free Terpene [1, 8]: + | Free Terpene [1, 9]: − | Free Terpene [1, 10]: + | Free Terpene [1, 11]: + | Free Terpene ([2]; L-carvone emulsion 150 μl, 10% Tween-80 0 μl): Sl | Free Terpene ([2]; L-carvone emulsion 150 μl, 10% Tween-80 5 μl): Sl | Free Terpene ([2]; L-carvone emulsion 150 μl, 10% Tween-80 10 μl): Sl | Free Terpene ([2]; L-carvone emulsion 150 μl, 10% Tween-80 33 μl): Sl | Colour [3, 12]: W | Colour [3, 13]: W | Colour [3, 14]: W | Colour [3, 15]: W | Colour [3, 16]: W | Colour [3, 17]: W | Color ([3]; 37 ° C., Bakers 250 mg/ml): W | Color ([3]; 37 ° C., Nutrex 100 mg/ml): W | Color ([3]; 37 ° C., SAF 100 mg/ml): W | Color ([3]; Rt, Bakers 250 mg/ml): W | Color ([3]; Rt, Nutrex 100 mg/ml): W | Color ([3]; Rt, SAF 100 mg/ml): W | Colour ([3]; Table 27, Baker's YP, emulsion 7 μl as printed): W | Colour [3, 18]: W | Colour [3, 19]: W | Colour [3, 20]: W | Colour [3, 21]: W | Colour [3, 22]: W | Colour [3, 23]: W | Colour [3, 24]: W | Colour [3, 25]: W | Colour [3, 26]: W | Colour [3, 27]: W | Colour [3, 28]: W | Colour [3, 29]: W | Colour [3, 30]: W | Free Terpene [4, 31]: − | Free Terpene [4, 32]: − | Free Terpene [4, 33]: + | Free Terpene [4, 34]: + | Vol. Loaded μl [4]: 37.5 µL | % Loaded w/w ([4]; maximal loading in Baker's YP, ratio of terpene loaded to particle present, weight for weight): 33.3 % w/w
